# Experimental data published in ChEMBL document CHEMBL1142788, “Synthesis and antibacterial activity of alkyl derivatives of the glycopeptide antibiotic A40926 and their amides” (2005).
# Assays:
# [1] = test system: Staphylococcus epidermidis; experiment: Minimum inhibitory concentration against methicillin-resistant Staphylococcus epidermidis in the presence of 30% bovine serum; type: functional
# Staphylococcus aureus [2] = experiment: Minimum inhibitory concentration against methicillin-resistant Staphylococcus aureus
# Enterococcus faecalis [3] = experiment: Minimum inhibitory concentration against vancomycin-A Enterococcus faecalis in the presence of 30% bovine serum (n=4); type: functional
# Enterococcus faecium [4] = experiment: Minimum inhibitory concentration against vancomycin-A Enterococcus faecium in the presence of 30% bovine serum (n=1) (range = 2>128mg/l); type: functional
# [5] = test system: Staphylococcus haemolyticus; experiment: Minimum inhibitory concentration against Staphylococcus haemolyticus in the presence of 30% bovine serum; type: functional
# [6] = test system: Staphylococcus epidermidis; experiment: Minimum inhibitory concentration against methicillin-sensitive Staphylococcus epidermidis in the presence of 30% bovine serum; type: functional
# Enterococcus faecalis [7] = experiment: Minimum inhibitory concentration against vancomycin-sensitive Enterococcus faecalis in the presence of 30% bovine serum(n=3) (range = 0.25-1mg/l); type: functional
# Staphylococcus aureus [8] = experiment: Minimum inhibitory concentration against methicillin-sensitive Staphylococcus aureus without serum
# Enterococcus faecium [9] = experiment: Minimum inhibitory concentration against vancomycin-sensitive Enterococcus faecium in the presence of 30% bovine serum(n=1); type: functional
# Enterococcus faecalis [10] = experiment: Minimum inhibitory concentration against vancomycin-A Enterococcus faecalis (n=4) (Range = 1 - 8 mg/L)
# Enterococcus faecalis [11] = experiment: Minimum inhibitory concentration against vancomycin-sensitive Enterococcus faecalis in the presence of 30% bovine serum(n=3)(range = 0.125-0.5mg/l); type: functional
# Enterococcus faecium [12] = experiment: Minimum inhibitory concentration against vancomycin-sensitive Enterococcus faecium in the presence of 30% bovine serum(n=1) (range = 1-8 mg/l); type: functional
# Enterococcus faecium [13] = experiment: Minimum inhibitory concentration against vancomycin-A Enterococcus faecium in the presence of 30% bovine serum (n=1) (range = 2>128); type: functional
# Enterococcus faecium [14] = experiment: Minimum inhibitory concentration against vancomycin-A Enterococcus faecium in the presence of 30% bovine serum (n=1) (range = 4-8mg/L); type: functional
# Enterococcus faecalis [15] = experiment: Minimum inhibitory concentration against vancomycin-sensitive Enterococcus faecalis in the presence of 30% bovine serum (n=3); type: functional
# Staphylococcus aureus [16] = experiment: Minimum inhibitory concentration against methicillin-sensitive Staphylococcus aureus
# Enterococcus faecium [17] = experiment: Minimum inhibitory concentration against vancomycin-A Enterococcus faecium in the presence of 30% bovine serum (n=1) (range = 64>128mg/L); type: functional
# Enterococcus faecalis [18] = experiment: Minimum inhibitory concentration against vancomycin-sensitive Enterococcus faecalis in the presence of 30% bovine serum(n=3)(range = 1-2mg/l); type: functional
# Enterococcus faecalis [19] = experiment: Minimum inhibitory concentration against vancomycin-A Enterococcus faecalis in the presence of 30% bovine serum(n=4) (128 >128mg/L); type: functional
# Enterococcus faecalis [20] = experiment: Minimum inhibitory concentration against vancomycin-sensitive Enterococcus faecalis in the presence of 30% bovine serum (n=3) (range = 0.25-0.5mg/l); type: functional
# Enterococcus faecium [21] = experiment: Minimum inhibitory concentration against vancomycin-A Enterococcus faecium in the presence of 30% bovine serum (n=1) (range = 4>128mg/L); type: functional
# Enterococcus faecalis [22] = experiment: Minimum inhibitory concentration against vancomycin-A Enterococcus faecalis in the presence of 30% bovine serum (n=4) (range = 1-16mg/L); type: functional
# Enterococcus faecium [23] = experiment: Minimum inhibitory concentration against vancomycin-A Enterococcus faecium in the presence of 30% bovine serum (n=1) (range = 32>128mg/L); type: functional
# Enterococcus faecalis [24] = experiment: Minimum inhibitory concentration against vancomycin-A Enterococcus faecalis in the presence of 30% bovine serum (n=4) (range = 8-64mg/L); type: functional
# Enterococcus faecalis [25] = experiment: Minimum inhibitory concentration against vancomycin-sensitive Enterococcus faecalis in the presence of 30% bovine serum(n=3)(range = 0.125-0.25mg/l); type: functional
# Enterococcus faecalis [26] = experiment: Minimum inhibitory concentration against vancomycin-sensitive Enterococcus faecalis in the presence of 30% bovine serum(n=3)(range = >=0.125-0.25mg/l); type: functional
# Enterococcus faecium [27] = experiment: Minimum inhibitory concentration against vancomycin-A Enterococcus faecium in the presence of 30% bovine serum (n=1) (128>128mg/L); type: functional
# Enterococcus faecium [28] = experiment: Minimum inhibitory concentration against vancomycin-A Enterococcus faecium in the presence of 30% bovine serum (n=1) (range = 2-32mg/l); type: functional
# Enterococcus faecalis [29] = experiment: Minimum inhibitory concentration against vancomycin-A Enterococcus faecalis in the presence of 30% bovine serum(n=4) (range = 1-16mg/L); type: functional
# Enterococcus faecalis [30] = experiment: Minimum inhibitory concentration against vancomycin-sensitive Enterococcus faecalis in the presence of 30% bovine serum (n=3) (range = <0.125-0.25mg/l); type: functional
# Enterococcus faecalis [31] = experiment: Minimum inhibitory concentration against vancomycin-A Enterococcus faecalis in the presence of 30% bovine serum(n=4) (range = 0.5-64mg/L); type: functional
# Enterococcus faecium [32] = experiment: Minimum inhibitory concentration against vancomycin-A Enterococcus faecium in the presence of 30% bovine serum (n=1) (range = 0.25-32mg/l); type: functional
Compound,MIC [1] [µg/mL],MIC (Staphylococcus aureus [2]) [µg/mL],MIC (Enterococcus faecalis [3]) [µg/mL],MIC [5] [µg/mL],MIC [6] [µg/mL],MIC (Enterococcus faecium [9]) [µg/mL],MIC (Staphylococcus aureus [16]) [µg/mL],other results
CN(Cc1ccc(C(=O)Oc2ccccc2)cc1)[C@H]1C(=O)N[C@@H]2Cc3ccc(cc3)Oc3cc4cc(c3O[C@@H]3OC(C(=O)O)C(O)[C@H](O)C3NCc3ccc(C(=O)Oc5ccccc5)cc3)Oc3ccc(cc3Cl)[C@@H](O)C3NC(=O)[C@H](NC(=O)[C@@H]4NC(=O)[C@@H](NC2=O)c2cc(cc(O)c2Cl)Oc2cc1ccc2O)c1ccc(O)c(c1)-c1c(O[C@H]2O[C@H](CO)[C@@H](O)[C@H](O)[C@@H]2O)cc(O)cc1[C@@H](C(=O)O)NC3=O (stereo partly drawn),16,2,4,64,4,1,,MIC (Enterococcus faecium [4]): > 128 µg/mL; MIC (Enterococcus faecalis [7]): 1 µg/mL; MIC (Staphylococcus aureus [8]): 2 µg/mL
CCCCOc1ccc(CNC2[C@H](Oc3c4cc5cc3Oc3ccc(cc3Cl)[C@@H](O)C3NC(=O)[C@H](NC(=O)[C@@H]5NC(=O)[C@H]5NC(=O)[C@@H](Cc6ccc(cc6)O4)NC(=O)[C@H](N(C)Cc4ccc(OCCCC)cc4)c4ccc(O)c(c4)Oc4cc(O)c(Cl)c5c4)c4ccc(O)c(c4)-c4c(O[C@H]5O[C@H](CO)[C@@H](O)[C@H](O)[C@@H]5O)cc(O)cc4[C@@H](C(=O)O)NC3=O)OC(C(=O)O)C(O)[C@@H]2O)cc1 (stereo partly drawn),8,1,,32,2,,,MIC (Enterococcus faecalis [10]): 8 µg/mL; MIC (Enterococcus faecalis [11]): 0.5 µg/mL; MIC (Enterococcus faecium [12]): 2 µg/mL; MIC (Enterococcus faecium [13]): > 128 µg/mL; MIC (Staphylococcus aureus [8]): 2 µg/mL
CCCCCCCCCCc1ccc(CNC2[C@H](Oc3c4cc5cc3Oc3ccc(cc3Cl)[C@@H](O)C3NC(=O)[C@H](NC(=O)[C@@H]5NC(=O)[C@H]5NC(=O)[C@@H](Cc6ccc(cc6)O4)NC(=O)[C@H](NC)c4ccc(O)c(c4)Oc4cc(O)c(Cl)c5c4)c4ccc(O)c(c4)-c4c(O[C@H]5O[C@H](CO)[C@@H](O)[C@H](O)[C@@H]5O)cc(O)cc4[C@@H](C(=O)NCCCN(C)C)NC3=O)OC(C(=O)NCCCN(C)C)C(O)[C@@H]2O)cc1 (stereo partly drawn),,2,4,2,1,0.25,,MIC (Enterococcus faecium [14]): 8 µg/mL; MIC (Enterococcus faecalis [15]): 0.25 µg/mL
CCCCOc1ccc(CN(C)[C@H]2C(=O)N[C@@H]3Cc4ccc(cc4)Oc4cc5cc(c4O[C@@H]4OC(C(=O)O)C(O)[C@H](O)C4N)Oc4ccc(cc4Cl)[C@@H](O)C4NC(=O)[C@H](NC(=O)[C@@H]5NC(=O)[C@@H](NC3=O)c3cc(cc(O)c3Cl)Oc3cc2ccc3O)c2ccc(O)c(c2)-c2c(O[C@H]3O[C@H](CO)[C@@H](O)[C@H](O)[C@@H]3O)cc(O)cc2[C@@H](C(=O)O)NC4=O)cc1 (stereo partly drawn),128,2,,> 128,32,2,4,MIC (Enterococcus faecium [17]): > 128 µg/mL; MIC (Enterococcus faecalis [18]): 2 µg/mL; MIC (Enterococcus faecalis [19]): 128 µg/mL
CN(Cc1ccc(-c2ccccc2)cc1)[C@H]1C(=O)N[C@@H]2Cc3ccc(cc3)Oc3cc4cc(c3O[C@@H]3OC(C(=O)O)C(O)[C@H](O)C3NCc3ccc(-c5ccccc5)cc3)Oc3ccc(cc3Cl)[C@@H](O)C3NC(=O)[C@H](NC(=O)[C@@H]4NC(=O)[C@@H](NC2=O)c2cc(cc(O)c2Cl)Oc2cc1ccc2O)c1ccc(O)c(c1)-c1c(O[C@H]2O[C@H](CO)[C@@H](O)[C@H](O)[C@@H]2O)cc(O)cc1[C@@H](C(=O)O)NC3=O (stereo partly drawn),4,0.5,,64,0.5,0.5,0.5,MIC (Enterococcus faecalis [20]): 0.5 µg/mL; MIC (Enterococcus faecium [21]): > 128 µg/mL; MIC (Enterococcus faecalis [22]): 16 µg/mL
CCCCCCCCOc1ccc(CNC2[C@H](Oc3c4cc5cc3Oc3ccc(cc3Cl)[C@@H](O)C3NC(=O)[C@H](NC(=O)[C@@H]5NC(=O)[C@H]5NC(=O)[C@@H](Cc6ccc(cc6)O4)NC(=O)[C@H](NC)c4ccc(O)c(c4)Oc4cc(O)c(Cl)c5c4)c4ccc(O)c(c4)-c4c(O[C@H]5O[C@H](CO)[C@@H](O)[C@H](O)[C@@H]5O)cc(O)cc4[C@@H](C(=O)O)NC3=O)OC(C(=O)O)C(O)[C@@H]2O)cc1 (stereo partly drawn),,1,,16,16,0.5,2,MIC (Enterococcus faecium [23]): > 128 µg/mL; MIC (Enterococcus faecalis [24]): 64 µg/mL; MIC (Enterococcus faecalis [25]): 0.125 µg/mL
CCCCCCC(CCCC)CNC1[C@H](Oc2c3cc4cc2Oc2ccc(cc2Cl)[C@@H](O)C2NC(=O)[C@H](NC(=O)[C@@H]4NC(=O)[C@H]4NC(=O)[C@@H](Cc5ccc(cc5)O3)NC(=O)[C@H](NC)c3ccc(O)c(c3)Oc3cc(O)c(Cl)c4c3)c3ccc(O)c(c3)-c3c(O[C@H]4O[C@H](CO)[C@@H](O)[C@H](O)[C@@H]4O)cc(O)cc3[C@@H](C(=O)O)NC2=O)OC(C(=O)O)C(O)[C@@H]1O (stereo partly drawn),32,2,> 128,32,2,1,4,MIC (Enterococcus faecalis [26]): ≤ 0.125 µg/mL; MIC (Enterococcus faecium [27]): > 128 µg/mL
CN(C)CCCNC(=O)C1O[C@@H](Oc2c3cc4cc2Oc2ccc(cc2Cl)[C@@H](O)C2NC(=O)[C@H](NC(=O)[C@@H]4NC(=O)[C@H]4NC(=O)[C@@H](Cc5ccc(cc5)O3)NC(=O)[C@H](N(C)Cc3ccc(-c5ccccc5)cc3)c3ccc(O)c(c3)Oc3cc(O)c(Cl)c4c3)c3ccc(O)c(c3)-c3c(O[C@H]4O[C@H](CO)[C@@H](O)[C@H](O)[C@@H]4O)cc(O)cc3[C@@H](C(=O)NCCCN(C)C)NC2=O)C(NCc2ccc(-c3ccccc3)cc2)[C@@H](O)C1O (stereo partly drawn),1,1,,2,0.25,0.5,1,MIC (Enterococcus faecium [28]): 32 µg/mL; MIC (Enterococcus faecalis [29]): 4 µg/mL; MIC (Enterococcus faecalis [15]): 0.25 µg/mL
CN(C)CCCNC(=O)C1O[C@@H](Oc2c3cc4cc2Oc2ccc(cc2Cl)[C@@H](O)C2NC(=O)[C@H](NC(=O)[C@@H]4NC(=O)[C@H]4NC(=O)[C@@H](Cc5ccc(cc5)O3)NC(=O)[C@H](N(C)Cc3ccc5ccccc5c3)c3ccc(O)c(c3)Oc3cc(O)c(Cl)c4c3)c3ccc(O)c(c3)-c3c(O[C@H]4O[C@H](CO)[C@@H](O)[C@H](O)[C@@H]4O)cc(O)cc3[C@@H](C(=O)NCCCN(C)C)NC2=O)C(NCc2ccc3ccccc3c2)[C@@H](O)C1O (stereo partly drawn),2,2,,1,< 0.125,0.25,1,MIC (Enterococcus faecalis [30]): < 0.25 µg/mL; MIC (Enterococcus faecalis [31]): 64 µg/mL; MIC (Enterococcus faecium [32]): > 32 µg/mL
